Here are results for one compound from publication PMC10590419, “Structural and mechanistic insights into the inhibition of respiratory syncytial virus polymerase by a non-nucleoside inhibitor” (Communications Biology, 2023).

Experiment [1] relates to rgRSV224 (RSV A2 reporter virus). Description: Inhibition of rgRSV224 reporter RSV in HeLa cells (GFP). The conditions noted are these: human respiratory syncytial virus, 72 h, read-out: Median EC50.
The test system of experiment [2] is RSV A2 replicon in APC-126 cells. In words: RSV subgenomic replicon (minireplicon) assay, luciferase. The class given is cell-based. The conditions noted are these: human respiratory syncytial virus, APC-126, 72 h, read-out: Median EC50. How it is done: The RSV subgenomic replicon system was licensed from Apath (Apath, NY, USA)[49],[50]. The BHK-derived cell line (APC-126) containing the stable RSV A2 replicon was cultured in DMEM/Hams F-12 medium supplemented with 10% (v/v) FBS (Gibco), 1% (v/v) penicillin (10,000 units/mL) and streptomycin (10,000 µg/mL) solution (Gibco), 1% (v/v) MEM non-essential amino acids solution (Gibco), 5% (v/v) Tryptose Phosphate Broth solution (29.5 g/l) (Sigma-Aldrich) and 10 µg/ml of blasticidin solution (Invivogen). Cells were maintained at 37 °C in a humidified 5% CO2 atmosphere. 5000 cells were plated in 96-well clear plates (Corning) in 100 µl/well of medium. […] Cell viability (CC50 and CC90) was measured with a CellTiter-Glo cell proliferation assay (Promega, 100 µl/well of reagent). Results were expressed as EC50 and EC90 values as well as CC50 and CC90 values.
On the technique in general: A replicon is a self-replicating genome or part of one, used to study replication in cells.

Experiment [3] relates to PIV-3 (recombinant JS-derived strain encoding GFP). The format is cell-based, parainfluenza virus type 3.
The target in another experiment is RSV MTase-CTD protein (Human respiratory syncytial virus A, UniProt P28887). In words: Methyltransferase filter-binding assay. The class given is biochemical. As to conditions: for MTase activity, RNA+compound+RSV MTase-CTD, CPM: three technical replicates.
Chain of RSV MTase-CTD protein (P28887 1755-2165): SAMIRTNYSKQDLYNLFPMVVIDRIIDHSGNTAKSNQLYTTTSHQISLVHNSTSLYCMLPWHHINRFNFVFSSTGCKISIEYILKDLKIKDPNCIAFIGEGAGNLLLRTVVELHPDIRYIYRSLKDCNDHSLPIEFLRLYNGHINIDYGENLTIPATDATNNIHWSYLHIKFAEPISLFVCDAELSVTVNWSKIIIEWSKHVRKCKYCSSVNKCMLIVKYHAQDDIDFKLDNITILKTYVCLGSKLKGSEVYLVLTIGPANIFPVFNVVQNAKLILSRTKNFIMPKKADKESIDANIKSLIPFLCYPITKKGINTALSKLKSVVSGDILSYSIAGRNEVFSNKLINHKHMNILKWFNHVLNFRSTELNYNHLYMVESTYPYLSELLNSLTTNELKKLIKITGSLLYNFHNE
In the next experiment the target is RSV L+P complex (Human respiratory syncytial virus A, UniProt P28887). Description: Thermal shift assay (Prometheus NT.48). The format is binding, Human RSV (strain A2). The conditions noted are these: read-out: increase in melting temperature (Tm).
Chain of RSV L+P complex (P03421 whole entry): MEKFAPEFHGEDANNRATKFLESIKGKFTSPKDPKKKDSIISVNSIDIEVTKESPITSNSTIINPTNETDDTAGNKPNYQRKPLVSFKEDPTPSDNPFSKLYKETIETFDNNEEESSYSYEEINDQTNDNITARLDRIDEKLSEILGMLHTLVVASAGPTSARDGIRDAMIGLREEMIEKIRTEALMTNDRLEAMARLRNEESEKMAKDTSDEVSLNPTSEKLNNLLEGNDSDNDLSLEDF
Chain of RSV L+P complex (P28887 whole entry): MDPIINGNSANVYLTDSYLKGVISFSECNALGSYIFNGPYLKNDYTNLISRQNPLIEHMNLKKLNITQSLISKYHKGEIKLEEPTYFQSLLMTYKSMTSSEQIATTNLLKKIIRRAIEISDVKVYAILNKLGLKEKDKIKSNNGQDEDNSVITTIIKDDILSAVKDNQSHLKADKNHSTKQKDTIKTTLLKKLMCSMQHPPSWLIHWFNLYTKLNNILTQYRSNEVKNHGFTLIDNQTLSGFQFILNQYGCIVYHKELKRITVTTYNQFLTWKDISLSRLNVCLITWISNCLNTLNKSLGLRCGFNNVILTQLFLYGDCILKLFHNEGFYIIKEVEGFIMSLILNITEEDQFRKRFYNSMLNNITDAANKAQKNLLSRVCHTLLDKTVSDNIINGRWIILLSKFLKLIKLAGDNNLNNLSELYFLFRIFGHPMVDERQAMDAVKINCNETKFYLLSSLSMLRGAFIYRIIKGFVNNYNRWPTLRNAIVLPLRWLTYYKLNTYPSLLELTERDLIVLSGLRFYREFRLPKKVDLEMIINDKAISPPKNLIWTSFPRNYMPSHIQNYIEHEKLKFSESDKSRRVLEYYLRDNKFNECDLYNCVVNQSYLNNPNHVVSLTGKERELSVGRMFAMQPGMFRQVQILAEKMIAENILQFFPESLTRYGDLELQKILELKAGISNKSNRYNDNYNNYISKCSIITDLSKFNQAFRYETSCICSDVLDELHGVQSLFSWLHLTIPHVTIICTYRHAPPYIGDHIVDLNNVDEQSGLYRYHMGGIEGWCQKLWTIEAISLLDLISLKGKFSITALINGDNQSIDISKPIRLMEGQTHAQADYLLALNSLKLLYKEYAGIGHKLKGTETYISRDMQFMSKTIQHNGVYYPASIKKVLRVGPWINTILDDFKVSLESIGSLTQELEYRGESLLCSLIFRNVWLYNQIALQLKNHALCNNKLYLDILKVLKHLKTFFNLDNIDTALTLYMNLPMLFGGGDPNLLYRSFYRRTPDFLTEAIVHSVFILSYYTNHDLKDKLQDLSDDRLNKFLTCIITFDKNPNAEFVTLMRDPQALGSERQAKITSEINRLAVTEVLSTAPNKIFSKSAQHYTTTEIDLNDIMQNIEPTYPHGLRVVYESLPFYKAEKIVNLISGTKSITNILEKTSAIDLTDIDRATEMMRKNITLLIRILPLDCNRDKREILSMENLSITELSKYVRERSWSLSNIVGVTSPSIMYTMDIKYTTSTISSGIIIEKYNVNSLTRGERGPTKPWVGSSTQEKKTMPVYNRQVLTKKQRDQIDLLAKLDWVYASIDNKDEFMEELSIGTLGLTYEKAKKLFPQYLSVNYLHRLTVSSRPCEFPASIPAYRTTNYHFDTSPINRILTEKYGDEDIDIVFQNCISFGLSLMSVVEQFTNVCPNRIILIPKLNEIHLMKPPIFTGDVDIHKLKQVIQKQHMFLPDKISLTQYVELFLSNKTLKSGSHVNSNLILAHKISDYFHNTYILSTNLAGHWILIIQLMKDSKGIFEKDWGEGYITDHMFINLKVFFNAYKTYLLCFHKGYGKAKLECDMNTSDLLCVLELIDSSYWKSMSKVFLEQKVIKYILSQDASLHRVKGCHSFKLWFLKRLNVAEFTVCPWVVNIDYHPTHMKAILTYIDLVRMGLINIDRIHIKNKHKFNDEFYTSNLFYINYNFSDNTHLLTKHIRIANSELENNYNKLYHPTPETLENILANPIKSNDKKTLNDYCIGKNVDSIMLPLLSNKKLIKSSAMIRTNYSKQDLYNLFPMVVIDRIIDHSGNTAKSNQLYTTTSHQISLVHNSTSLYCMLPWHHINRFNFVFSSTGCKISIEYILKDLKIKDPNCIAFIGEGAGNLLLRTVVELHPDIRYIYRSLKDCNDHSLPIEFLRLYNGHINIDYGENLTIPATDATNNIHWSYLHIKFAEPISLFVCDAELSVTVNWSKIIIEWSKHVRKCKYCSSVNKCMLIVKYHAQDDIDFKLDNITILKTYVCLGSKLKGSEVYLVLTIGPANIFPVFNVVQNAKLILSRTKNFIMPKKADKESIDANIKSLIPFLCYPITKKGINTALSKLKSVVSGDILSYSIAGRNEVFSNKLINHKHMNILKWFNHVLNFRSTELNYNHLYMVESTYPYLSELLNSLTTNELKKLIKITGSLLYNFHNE
A further experiment has as its target Human RNA polymerase II (Homo sapiens, UniProt P24928+P30876). Description: RNA polymerase II DdRp activity (HeLa nuclear extract). The class given is biochemical. As to conditions: RNA Pol II.
Experiment [4] has as its target human mitochondrial RNA polymerase (POLRMT) (Homo sapiens, UniProt O00411). In words: Mitochondrial RNA polymerase DdRp activity. The class given is biochemical. How it is done:
to the method described previously 1. A 25 nM solution of RSV MTase-CTD protein or RSV L+P complex was incubated with 0.7 µM or 1.8 µM purified synthetic RNA 5’-Gppp […]
[…] (RSV9) for the MTase-CTD or L+P complex, respectively; 2 µM or 0.17 µM S-adenosyl methionine (SAM) for the MTase-CTD or L–P complex, respectively; and 0.1 µM or 0.8 µM 3H-SAM (Perkin Elmer) for the MTase-CTD or L–P complex, respectively; in 50 mM Tris-HCl pH 8.0. Compounds, previously dissolved in DMSO were added at a final concentration of 50 µM or 200 µM. After 3 h incubation at 30°C, reactions were quenched by a 20-fold dilution in ice cold water. […] They were then soaked with scintillation fluid (Perkin Elmer), and 3H-methyl transfer to the RNA substrates was determined using a Wallac MicroBeta TriLux Liquid Scintillation Counter. […]
Human DNA polymerases alpha (CHIMERx) at 5 U/ml, beta (CHIMERx) at 0.5 U/ml and gamma (Abcam) at 0.1 mg/ml were incubated with the tested inhibitors at specified concentrations, and a reaction mix composed of 62 µg/ml activated calf thymus DNA, dGTP (2 µM), dATP (2 µM), dCTP (2 µM), [ 3H]dTTP (0.05 µCi/µl), 0.1 mg/ml BSA and a buffer composed of Tris-HCl pH 8 (50 mM), MgCl 2 (5 mM), KCl (60 mM), and DTT (4 mM.) in a total volume of 50 µl. […] Radioactivity was measured via liquid scintillation counting (MicroScint-20, 40µl) on a TriLux apparatus. […]

Experiment [5] has as its system HMPV (recombinant CAN97-83-derived strain encoding GFP). In words: microbe, parasite or virus in culture. The format is cell-based. As to conditions: human metapneumovirus, LLC-MK2.

pEC50, pIC50: −log10 of the molar value. “And” between values parts separate entries of the source, which are not always exact repeats. Equal entries are not always repeated.

Chain of human mitochondrial RNA polymerase (POLRMT) (O00411 42-1230): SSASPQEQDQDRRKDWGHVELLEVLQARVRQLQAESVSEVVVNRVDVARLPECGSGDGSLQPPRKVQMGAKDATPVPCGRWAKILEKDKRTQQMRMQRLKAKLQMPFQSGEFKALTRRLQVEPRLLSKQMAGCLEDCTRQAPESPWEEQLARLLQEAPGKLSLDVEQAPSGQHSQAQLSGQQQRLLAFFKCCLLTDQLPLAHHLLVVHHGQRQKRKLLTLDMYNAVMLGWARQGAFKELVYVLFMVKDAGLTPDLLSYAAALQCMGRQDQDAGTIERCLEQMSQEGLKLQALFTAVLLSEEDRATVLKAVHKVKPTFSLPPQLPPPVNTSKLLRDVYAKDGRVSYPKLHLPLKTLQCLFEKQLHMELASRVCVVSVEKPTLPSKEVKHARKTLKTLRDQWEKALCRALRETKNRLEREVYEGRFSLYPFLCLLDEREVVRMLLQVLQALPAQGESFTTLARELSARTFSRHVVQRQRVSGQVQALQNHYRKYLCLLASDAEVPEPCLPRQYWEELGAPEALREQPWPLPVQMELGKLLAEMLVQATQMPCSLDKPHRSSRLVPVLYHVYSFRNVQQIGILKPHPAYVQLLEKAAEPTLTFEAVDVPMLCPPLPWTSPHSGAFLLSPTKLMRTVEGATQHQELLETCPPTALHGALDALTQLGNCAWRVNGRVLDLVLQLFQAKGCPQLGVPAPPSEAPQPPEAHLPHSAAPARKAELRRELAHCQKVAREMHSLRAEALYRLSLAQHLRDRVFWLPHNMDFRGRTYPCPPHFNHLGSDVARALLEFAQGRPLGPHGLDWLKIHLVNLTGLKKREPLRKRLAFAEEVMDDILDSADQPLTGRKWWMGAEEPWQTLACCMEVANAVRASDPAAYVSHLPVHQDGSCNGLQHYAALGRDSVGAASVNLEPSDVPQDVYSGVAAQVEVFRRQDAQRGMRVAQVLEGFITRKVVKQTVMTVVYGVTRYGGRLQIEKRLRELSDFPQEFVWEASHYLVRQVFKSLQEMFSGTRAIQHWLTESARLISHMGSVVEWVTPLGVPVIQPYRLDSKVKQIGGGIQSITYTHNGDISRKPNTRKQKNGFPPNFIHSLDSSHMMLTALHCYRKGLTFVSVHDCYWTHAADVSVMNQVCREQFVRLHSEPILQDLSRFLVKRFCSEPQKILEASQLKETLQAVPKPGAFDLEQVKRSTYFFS

As usually defined, the pEC50 is the negative decadic logarithm of the EC50, by convention in mol/L. What is called pIC50 is the IC50 on a negative log10 scale, so that one unit is a factor of ten. A lower pIC50 goes with a high IC50. With `COc1cc(C(=O)NC[C@](O)(c2cc(C(C)(C)O)c(F)c(-c3ccc(F)cc3)n2)C(F)(F)F)cc2cc(C)nnc12` [JNJ-8003], the results for the pEC50 in experiment [1], in experiment [2] and in experiment [5] were 9.11, 9.82 and 7.06, respectively. In addition, the “inhibition (in words)” value in experiment [3] was “negligible inhibition”. In addition, the “MTase activity, RNA+compound+RSV MTase-CTD, CPM” value on RSV MTase-CTD protein (50 uM) is 32508 CPM and 30594 CPM and 30169 CPM; at RSV MTase-CTD protein (200 uM), 26082 CPM and 22767 CPM and 27924 CPM. Further, at RSV MTase-CTD protein (recombinant MTase-CTD fragment), the “impact on MTase activity (in words)” value is listed as “no impact”. Besides, the ΔTm at 25 µM on RSV L+P complex worked out at 6 °C. Further, the pIC50 (at Human RNA polymerase II; in experiment [4]) was less than 4.00 throughout.
